Test results taken from patent US20050176739A1, “Therapeutic agent for eating disorders” (priority 1999, published 2005).

- melting point: 201.5 to 202.3 °C
Compound: CCn1c(=O)c2c(nc(/C=C/c3cc(OC)c4c(c3)OCO4)n2C)n(CC)c1=O [Compound 3, (E)-1,3-diethyl-8-(3-methoxy-4,5-methylenedioxystyryl)-7-methylxanthine]
